Test system: Mild to Moderate Osteoarthritis of the Knee
Assay: Phase 2 study: WOMAC (VAS) pain subscale score, target knee
Format: in vivo, human
Settings: for WOMAC Pain Subscale Score, Avg.: Avg. of all patients; for WOMAC Pain Subscale Score, Avg. / WOMAC Pain Subscale Score: blinded, High Dose (8 spray/knee, 35 mg/knee) Cohort; for WOMAC Pain Subscale Score, cohort Avg.: low dose cohort 8.75 mg/knee BID, blinded (active + placebo), Day 1 Avg. 59.8; for difference of LS mean (8.75 mg-control), change from baseline in WOMAC pain subscale score / Change from baseline in WOMAC pain subscale score, LS mean (95% ci): Group A, 8.75 mg/knee; for difference of LS mean (8.75 mg-control), change from baseline in WOMAC pain subscale score / difference of LS mean (testing Drug-control), change from baseline in WOMAC pain subscale score: bid vs placebo; for Change from baseline in WOMAC pain subscale score, LS mean (95% ci) / Change from baseline in WOMAC pain subscale score, LS mean: bid; for difference of LS mean (testing Drug-control), change from baseline in WOMAC pain subscale score / Change from baseline in WOMAC pain subscale score, LS mean: Group C, 35 mg/knee; for WOMAC Pain Subscale Score: individual patient
Source text: This is a Phase 2, multicenter, randomized, double blind (within dose), placebo controlled, parallel group, proof of concept, and dose range finding study to evaluate the efficacy, safety, and PK of 2-(diethylamino)ethyl 2-(4-isobutylphenyl)propionate hydrochloride spray in adult subjects with clinically symptomatic mild to moderate OA of the knee. For subjects with bilateral knee pain, both knees will be treated, but the most symptomatic knee (i.e., the most painful knee as measured by the Western Ontario and McMaster University Osteoarthritis Index [WOMAC® 3.1] pain subscale score at Screening) will be designated as the target knee for efficacy analyses. For subjects with unilateral knee pain, only the symptomatic (target) knee will be treated.
After a Screening Period of up to 3 weeks and radiographic evaluation of the target knee joint space, a subject will be randomly assigned to 1 of 3 treatment groups in a 1:1:1 ratio with a 2:1 ratio of active:placebo within each treatment group (ie, 2 subjects to active treatment and 1 subject to placebo): • Group A: 8.75 mg 2-(diethylamino)ethyl 2-(4-isobutylphenyl)propionate/knee (2 sprays/knee, one spray to the medial surface and one spray to the lateral surface of the knee), twice daily (BID, approximately every 12 hours; n=50) or placebo (2 sprays/knee), BID (approximately every 12 hours; n=25) for a total of 4 sprays per knee per day; • Group B: 17.5 mg 2-(diethylamino)ethyl 2-(4-isobutylphenyl)propionate/knee (4 sprays/knee, one spray to the medial surface and one spray to the lateral surface of the knee, and one spray to front and one spray to the back of the knee), BID (approximately every 12 hours; n=50) or placebo (4 sprays/knee), BID (approximately every 12 hours; n=25) for a total of 8 sprays per knee per day; • Group C: 35 mg 2-(diethylamino)ethyl 2-(4-isobutylphenyl)propionate/knee (8 sprays/knee, each spray is to be applied to a different non-overlapping area around the knee, and the areas are to be uniformly distributed around the knee), BID (approximately every 12 hours; n=50) or placebo (8 sprays/knee), BID (approximately every 12 hours; n=25) for a total of 16 sprays per knee per day.
The VAS version of the WOMAC will be used for the Primary and Secondary Efficacy Endpoints. Efficacy endpoints will be assessed at Screening and Baseline (Day 1) and at the Week 2, Week 4, Week 8, and Week 12/EOS visits.
The Primary Efficacy Endpoint is the change from Baseline in the WOMAC (VAS) pain subscale score for the target knee at […] of treatment.
3.9.2. Secondary Efficacy Endpoints: • 1. Change from Baseline in the WOMAC (VAS) pain subscale score for the target knee at 2, 4, and 8 weeks of treatment; • 2. Change from Baseline in the WOMAC (VAS) stiffness subscale scores for the target knee and WOMAC (VAS) functional ability subscale scores at 2, 4, 8, and 12 weeks of treatment; • 3. Change from Baseline in the overall WOMAC (VAS) score at 2, 4, 8, and 12 weeks of treatment.
The Primary Efficacy Endpoint is change from Baseline in the WOMAC (VAS) pain subscale score for the target knee at 4 weeks of treatment, and will be analyzed using an analysis of covariance (ANCOVA). Treatment will be included as a fixed class effect and WOMAC Baseline pain subscale score as covariates. The primary comparisons of interest will be the difference between active Group A (8.75 mg 2-(diethylamino)ethyl 2-(4-isobutylphenyl)propionate/knee) and combined placebo, active Group B (17.5 mg 2-(diethylamino)ethyl 2-(4-isobutylphenyl)propionate/knee) and combined placebo, and active Group C (35 mg 2-(diethylamino)ethyl 2-(4-isobutylphenyl)propionate/knee) and combined placebo. […]

## CCN(CC)CCOC(=O)C(C)c1ccc(CC(C)C)cc1 (stereo not drawn) [2-(diethylamino)ethyl 2-(4-isobutylphenyl)propionate]
5 patients on second batch active drug kits
  reduction of pain WOMAC from baseline to week 12: 81-98%
Day 1
  WOMAC Pain Subscale Score, Avg.: 59.2
  WOMAC Pain Subscale Score: 59.4
Follow-up
  WOMAC Pain Subscale Score, Avg.: 35.2
  WOMAC Pain Subscale Score, cohort Avg.: 39.7
  WOMAC Pain Subscale Score: 67.0
Week 2
  WOMAC Pain Subscale Score, Avg.: 46.6
  difference of LS mean (8.75 mg-control), change from baseline in WOMAC pain subscale score: 6.7 mm
  Change from baseline in WOMAC pain subscale score, LS mean (95% ci): −7.5 (−13.3, −1.7) mm
  difference of LS mean (testing Drug-control), change from baseline in WOMAC pain subscale score: −11.5 mm
  Change from baseline in WOMAC pain subscale score, LS mean: −15.6 mm
  WOMAC Pain Subscale Score, cohort Avg.: 48.6
Week 4
  WOMAC Pain Subscale Score, Avg.: 41.5
  difference of LS mean (8.75 mg-control), change from baseline in WOMAC pain subscale score: 10.5 mm
  Change from baseline in WOMAC pain subscale score, LS mean (95% ci): −10.6 (−17.1, −4.1) mm
  difference of LS mean (testing Drug-control), change from baseline in WOMAC pain subscale score: −12.8 mm
  Change from baseline in WOMAC pain subscale score, LS mean: −21.2 mm
  WOMAC Pain Subscale Score, cohort Avg.: 42.8
Week 8
  WOMAC Pain Subscale Score, Avg.: 37.0
  difference of LS mean (8.75 mg-control), change from baseline in WOMAC pain subscale score: 7.9 mm
  Change from baseline in WOMAC pain subscale score, LS mean (95% ci): −15.7 (−22.5, −8.8) mm
  difference of LS mean (testing Drug-control), change from baseline in WOMAC pain subscale score: −6.0 mm
  Change from baseline in WOMAC pain subscale score, LS mean: −24.0 mm
  WOMAC Pain Subscale Score, cohort Avg.: 38.4
Week 12
  WOMAC Pain Subscale Score, Avg.: 33.8
  WOMAC Pain Subscale Score, cohort Avg.: 38.2
Week 12/EOS
  difference of LS mean (8.75 mg-control), change from baseline in WOMAC pain subscale score: 8.6 mm
  Change from baseline in WOMAC pain subscale score, LS mean (95% ci): −16.1 (−23.6, −8.6) mm
  difference of LS mean (testing Drug-control), change from baseline in WOMAC pain subscale score: −4.1 mm
  Change from baseline in WOMAC pain subscale score, LS mean: −26.9 mm
Patient 1056, second batch active drug kits, Day 1
  WOMAC Pain Subscale, WOMAC VAS Score: 51.8 mm
Patient 1056, second batch active drug kits, Follow Up
  WOMAC Pain Subscale, WOMAC VAS Score: 10.0 mm
Patient 1056, second batch active drug kits, Week 2
  WOMAC Pain Subscale, WOMAC VAS Score: 31.0 mm
Patient 1056, second batch active drug kits, Week 4
  WOMAC Pain Subscale, WOMAC VAS Score: 22.6 mm
Patient 1056, second batch active drug kits, Week 8
  WOMAC Pain Subscale, WOMAC VAS Score: 28.0 mm
Patient 1056, second batch active drug kits, Week 12
  WOMAC Pain Subscale, WOMAC VAS Score: 12.0 mm
Patient 1064, second batch active drug kits, Day 1
  WOMAC Pain Subscale, WOMAC VAS Score: 32.6 mm
Patient 1064, second batch active drug kits, Follow Up
  WOMAC Pain Subscale, WOMAC VAS Score: 1.6 mm
Patient 1064, second batch active drug kits, Week 2
  WOMAC Pain Subscale, WOMAC VAS Score: 21.6 mm
Patient 1064, second batch active drug kits, Week 4
  WOMAC Pain Subscale, WOMAC VAS Score: 1.8 mm
Patient 1064, second batch active drug kits, Week 8
  WOMAC Pain Subscale, WOMAC VAS Score: 1.0 mm
Patient 1064, second batch active drug kits, Week 12
  WOMAC Pain Subscale, WOMAC VAS Score: 0 mm
Patient 1535, second batch active drug kits, Day 1
  WOMAC Pain Subscale, WOMAC VAS Score: 40.4 mm
Patient 1535, second batch active drug kits, Follow Up
  WOMAC Pain Subscale, WOMAC VAS Score: 0.0 mm
Patient 1535, second batch active drug kits, Week 2
  WOMAC Pain Subscale, WOMAC VAS Score: 2.8 mm
Patient 1535, second batch active drug kits, Week 4
  WOMAC Pain Subscale, WOMAC VAS Score: 2.6 mm
Patient 1535, second batch active drug kits, Week 8
  WOMAC Pain Subscale, WOMAC VAS Score: 4.0 mm
Patient 1535, second batch active drug kits, Week 12
  WOMAC Pain Subscale, WOMAC VAS Score: 0.6 mm
Patient 1539, second batch active drug kits, Day 1
  WOMAC Pain Subscale, WOMAC VAS Score: 63.0 mm
Patient 1539, second batch active drug kits, Follow Up
  WOMAC Pain Subscale, WOMAC VAS Score: 5.0 mm
Patient 1539, second batch active drug kits, Week 2
  WOMAC Pain Subscale, WOMAC VAS Score: 47.6 mm
Patient 1539, second batch active drug kits, Week 4
  WOMAC Pain Subscale, WOMAC VAS Score: 48.2 mm
Patient 1539, second batch active drug kits, Week 8
  WOMAC Pain Subscale, WOMAC VAS Score: 1.8 mm
Patient 1539, second batch active drug kits, Week 12
  WOMAC Pain Subscale, WOMAC VAS Score: 9.4 mm
Patient 9032, second batch active drug kits, Day 1
  WOMAC Pain Subscale, WOMAC VAS Score: 16.6 mm
Patient 9032, second batch active drug kits, Follow Up
  WOMAC Pain Subscale, WOMAC VAS Score: 3.0 mm
Patient 9032, second batch active drug kits, Week 2
  WOMAC Pain Subscale, WOMAC VAS Score: 11.2 mm
Patient 9032, second batch active drug kits, Week 4
  WOMAC Pain Subscale, WOMAC VAS Score: 6.2 mm
Patient 9032, second batch active drug kits, Week 8
  WOMAC Pain Subscale, WOMAC VAS Score: 4.4 mm
Patient 9032, second batch active drug kits, Week 12
  WOMAC Pain Subscale, WOMAC VAS Score: 3.2 mm
